From US20100093865A1, “SULPHUR-LINKED COMPOUNDS FOR TREATING OPHTHALMIC DISEASES AND DISORDERS” (Acucela, Inc., priority 2008, published 2010)

Tests used:
[1] = molecular target: T1, recombinant human RPE65 and LRAT (visual cycle isomerase) (Homo sapiens, UniProt Q16518); test: Human in vitro isomerase inhibition assay; assay type: biochemical
T1 construct: expressed in transfected cells; host or cells: HEK293 cell clone (homogenate); CRALBP made in E. coli TOP10
T1 sequence (Q16518 2-533 limits assumed): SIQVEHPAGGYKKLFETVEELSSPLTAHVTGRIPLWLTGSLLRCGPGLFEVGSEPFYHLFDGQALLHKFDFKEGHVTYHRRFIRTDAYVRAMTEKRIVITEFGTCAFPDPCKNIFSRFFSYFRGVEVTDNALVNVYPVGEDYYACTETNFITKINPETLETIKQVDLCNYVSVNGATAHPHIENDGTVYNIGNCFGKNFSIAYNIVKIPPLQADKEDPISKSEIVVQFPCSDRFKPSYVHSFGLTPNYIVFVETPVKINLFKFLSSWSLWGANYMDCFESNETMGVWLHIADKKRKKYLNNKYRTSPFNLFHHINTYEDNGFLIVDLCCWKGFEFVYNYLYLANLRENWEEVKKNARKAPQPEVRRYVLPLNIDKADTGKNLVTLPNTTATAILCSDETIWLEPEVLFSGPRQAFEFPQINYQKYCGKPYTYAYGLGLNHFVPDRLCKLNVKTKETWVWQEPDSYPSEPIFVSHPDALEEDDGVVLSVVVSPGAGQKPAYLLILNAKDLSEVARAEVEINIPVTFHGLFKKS
Procedure: The capability of sulphur-linked compounds to inhibit the activity of a visual cycle isomerase was determined in vitro either in a human or bovine-based assay system.
Recombinant human apo cellular retinaldehyde-binding protein (CRALBP) was cloned and expressed according to standard methods in the molecular biology art (see Crabb et al., Protein Science 7:746-57 (1998); Crabb et al., J. Biol. Chem. 263:18688-92 (1988)). Briefly, total RNA was prepared from confluent ARPE19 cells (American Type Culture Collection, Manassas, Va.), cDNA was synthesized using an oligo(dT)12-18 primer, and then DNA encoding CRALBP was amplified by two sequential polymerase chain reactions (see Crabb et al., J. Biol. Chem. 263:18688-92 (1988); Intres, et al., J. Biol. Chem. 269:25411-18 (1994); GenBank Accession No. L34219.1). The PCR product was sub-cloned into pTrcHis2-TOPO TA vector according to the manufacturer's protocol (Invitrogen Inc., Carlsbad, Calif.; catalog no. K4400-01), and then the sequence was confirmed according to standard nucleotide sequencing techniques. Recombinant 6×His-tagged human CRALBP was expressed in One Shot TOP 10 chemically competent E. coli cells (Invitrogen), and the recombinant polypeptide was isolated from E. coli cell lysates by nickel affinity chromatography using nickel (Ni) Sepharose XK16-20 columns for HPLC (Amersham Bioscience, Pittsburgh, Pa.; catalog no. 17-5268-02). The purified 6×His-tagged human CRALBP was dialyzed against 10 mM bis-tris-Propane (BTP) and analyzed by SDS-PAGE. The molecular weight of the recombinant human CRALBP was approximately 39 kDal.
The concentration dependent effect of the compounds disclosed herein on the retinol isomerization reaction were evaluated with a recombinant human enzyme system. […] A homogenate of HEK293 cell clone expressing recombinant human RPE65 and LRAT were the source of the visual enzymes, and exogenous all-trans-retinol (about 20 μM) was used as the substrate. Recombinant human CRALBP (about 80 ug/mL) was added to enhance the formation of 11-cis-retinal. The 200 μL Bis-Tris Phosphate buffer (10 mM, pH 7.2) based reaction mixture also contains 0.5% BSA, and 1 mM NaPPi. In this assay, the reaction was carried out at 37° C. in duplicates for one hour and was terminated by addition of 300 μL methanol. The amount of reaction product, 11-cis-retinol, was measured by HPLC analysis following Heptane extraction of the reaction mixture. […] The ability of the compounds disclosed herein to inhibit isomerization reaction is quantified and the respective IC50 value is determined. Table 2 summarizes the IC50 values of all the compounds of the present disclosure. […] The production of 11-cis-retinol was measured at different doses of compound administration.

isomerase = molecular target: T2, isomerase (Mus musculus, UniProt Q91ZQ5); test: In vivo murine isomerase assay; conditions: oral, mice, 11-cis-retinal (oxime) recovery after photobleaching
T2 construct: from tissue; host or cells: eye of living mice (CD-1; Balb/c also mentioned)
T2 sequence (Q91ZQ5 1-533): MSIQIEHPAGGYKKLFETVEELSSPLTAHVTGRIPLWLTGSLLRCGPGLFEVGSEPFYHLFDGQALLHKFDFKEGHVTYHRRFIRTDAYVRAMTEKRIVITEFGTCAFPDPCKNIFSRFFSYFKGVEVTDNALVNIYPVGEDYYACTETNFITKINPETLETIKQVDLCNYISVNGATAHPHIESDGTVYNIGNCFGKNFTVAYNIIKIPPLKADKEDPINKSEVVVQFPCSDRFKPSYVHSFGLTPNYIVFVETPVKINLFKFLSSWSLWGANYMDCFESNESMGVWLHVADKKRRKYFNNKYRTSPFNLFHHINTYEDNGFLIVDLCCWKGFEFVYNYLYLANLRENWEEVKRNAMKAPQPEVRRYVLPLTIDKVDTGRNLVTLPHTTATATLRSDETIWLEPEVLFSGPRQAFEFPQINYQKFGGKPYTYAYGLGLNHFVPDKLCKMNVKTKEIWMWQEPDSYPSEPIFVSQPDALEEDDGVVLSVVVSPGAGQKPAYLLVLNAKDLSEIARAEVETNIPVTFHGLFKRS
Procedure: The capability of sulphur-linked compounds to inhibit isomerase is determined by an in vivo murine isomerase assay. Brief exposure of the eye to intense light (“photobleaching” of the visual pigment or simply “bleaching”) is known to photo-isomerize almost all 11-cis-retinal in the retina. The recovery of 11-cis-retinal after bleaching can be used to estimate the activity of isomerase in vivo. Delayed recovery, as represented by lower 11-cis-retinal oxime levels, indicates inhibition of isomerization reaction. […] See also Deigner et al., Science, 244: 968-71 (1989); Gollapalli et al., Biochim Biophys Acta. 1651: 93-101 (2003); Parish, et al., Proc. Natl. Acad. Sci. USA, 14609-13 (1998); Radu, et al., Proc Natl Acad Sci USA 101: 5928-33 (2004).
About six-week old dark-adapted CD-1 (albino) male mice are orally gavaged with compound (0.01-25 mg/kg) dissolved in an appropriate amount of oil (about 100 μl corn oil containing 10% ethanol, at least five animals per group). Mice are gavaged with the sulphur-linked compounds described in the present disclosure. After about 2-24 hours in the dark, the mice are exposed to photobleaching of about 5,000 lux of white light for 10 minutes. The mice are allowed to recover for about 2 hours in the dark. The animals are then sacrificed by carbon dioxide inhalation. Retinoids are extracted from the eye and the regeneration of 11-cis-retinal is assessed at various time intervals.
All steps are performed in darkness with minimal redlight illumination (low light darkroom lights and red filtered flashlights for spot illumination as needed) (see, e.g., Maeda et al., J. Neurochem 85:944-956, 2003; Van Hooser et al., J Biol Chem 277:19173-82, 2002). After the mice are sacrificed, the eyes are immediately removed and placed in liquid nitrogen for storage.
The eyes are placed in about 500 μL of bis-tris propane buffer (10 mM, pH ˜7.3) and about 20 μL of 0.8M hydroxylamine (pH-7.3). The eyes are cut up into small pieces with small iris scissors and then thoroughly homogenized at 30000 rpm with a mechanical homogenizer (Polytron PT 1300 D) in the tube until no visible tissue remains. About […] of methanol and about 500 μL of heptane are added to each tube. The tubes are attached to a vortexer so that the contents are mixed thoroughly for about 15 minutes in room temperature. The organic phase is separated from the aqueous phase by centrifugation for about 10 min at 13K rpm, 4° C. 240 μL of the solution from the top layer (organic phase) is removed and transferred to clean 300 μl glass inserts in HPLC vials using glass pipette and the vials are crimped shut tightly.
The samples are analyzed on an Agilent 1100 HPLC system with normal phase column: SILICA (Beckman Coutlier, dp 5 μm, […]). The running method has a flow rate of 1.5 ml/min; solvent components are 15% solvent 1 (1% isopropanol in ethyl acetate), and 85% solvent 2 (100% hexanes). Loading volume for each sample is about 100 μl; detection wavelength is 360 nm. The area under the curve for 11-cis-retinal oxime is calculated by Agilent Chemstation software and recorded manually. Data processing is performed using Prizm software.
[…] control mice (no compound administered) are sacrificed fully dark-adapted and the eye retinoids analyzed. Light (bleached) control mice (no compound administered) are sacrificed and retinoids isolated and analyzed immediately after light treatment.
A dose response in vivo isomerase inhibition study is performed with the compounds of the present disclosure. Male or female mice (such as Balb/c mice) (at least about 8/group) are dosed orally with about 0.01 to 25 mg/kg of the compounds of HCl salts of the compounds in sterile water as solution, and photobleached about 4 hours after dosing. Recovery and retinoid analysis is performed as described above. Dark control mice are vehicle-only treated, sacrificed fully dark adapted without light treatment, and analyzed. […]

Row | SMILES | inhibition of 11-cis-retinol production [1] | % Inibition 0.3 mg/kg, 4 h (isomerase) [%] | % Inibition 1.0 mg/kg, 4 h (isomerase) [%]
1 | NCCCc1cccc(S(=O)(=O)CC2CCCCC2)c1 [Example 5, 3-(3-(cyclohexylmethylsulfonyl)phenyl)propan-1-amine] | dose-dependent inhibition | 1.1 | −12.1
2 | NCCC(O)c1cccc(SCC2CCCCC2)c1 (centres unmarked) [Example 8, 3-amino-1-(3-(cyclohexylmethylthio)phenyl)propan-1-ol] | – | – | −14.2
3 | NCCC(O)c1cccc(S(=O)(=O)CC2CCCCC2)c1 (centres unmarked) [Example 9, 3-amino-1-(3-(cyclohexylmethylsulfonyl)phenyl)propan-1-ol] | – | 3.7 | 20.3
4 | NCCC(=O)c1cccc(S(=O)(=O)CC2CCCCC2)c1 [Example 10, 3-amino-1-(3-(cyclohexylmethylsulfonyl)phenyl)propan-1-one] | – | – | 79.3
5 | NC/C=C/c1cccc(SCC2CCCCC2)c1 [Example 11, (E)-3-(3-(cyclohexylmethylthio)phenyl)prop-2-en-1-amine] | dose-dependent inhibition | – | –
6 | NC/C=C/c1cccc(S(=O)(=O)CC2CCCCC2)c1 [Example 14, (E)-3-(3-(cyclohexylmethylsulfonyl)phenyl)prop-2-en-1-amine] | dose-dependent inhibition | – | –
7 | NCC[C@@H](O)c1cccc(SCC2CCCCC2)c1 [Example 17, (R)-3-amino-1-(3-(cyclohexylmethylthio)phenyl)propan-1-ol] | dose-dependent inhibition | – | 33.4
8 | CCCCSc1cccc([C@H](O)CCN)c1 [Example 18, (R)-3-amino-1-(3-(butylthio)phenyl)propan-1-ol] | – | – | 68.6
9 | NCCC(O)c1cccc(SCC2(O)CCCCC2)c1 (centres unmarked) [Example 27, 1-((3-(3-amino-1-hydroxypropyl)phenylthio)methyl)cyclohexanol] | – | – | 14.8
10 | [2H]C([2H])(N)CC(O)c1cccc(SCC2CCCCC2)c1 (centres unmarked) [Example 45, 3-amino-1-(3-(cyclohexylmethylthio)phenyl)-3,3-dideuteropropan-1-ol] | – | – | 87.1
11 | [2H]C([2H])(Sc1cccc(C(O)CCN)c1)C1CCCCC1 (centres unmarked) [Example 49, 3-amino-1-(3-(cyclohexyldideuteromethylthio)phenyl)propan-1-ol] | – | – | −8.5
12 | [2H]C([2H])(C1CCCCC1)S(=O)(=O)c1cccc(C(O)CCN)c1 (centres unmarked) [Example 50, 3-amino-1-(3-(cyclohexyldideuteromethylsulfonyl)phenyl)propan-1-ol] | – | – | −1.6
13 | [2H]C1([2H])C([2H])([2H])C([2H])([2H])C([2H])(CSc2cccc(C(O)CCN)c2)C([2H])([2H])C1([2H])[2H] (centres unmarked) [Example 53, 3-amino-1-(3-((perdeuterocyclohexyl)methylthio)phenyl)propan-1-ol] | – | – | −4.9
